Measurements reported in the supplement of paper PMC10307832.

Tests used:
Assay in all cases: relative viability (nuclei count vs DMSO), 5 days (fraction); higher = more cells survive
[1] = compound: C1=CC2=C(C=C(C(=C2N=C1)O)N=NC3=CC4=C(C=C3)C=C(C=C4)S(=O)(=O)O)S(=O)(=O)O + CCNC(=O)c1noc(-c2cc(C(C)C)c(O)cc2O)c1-c1ccc(CN2CCOCC2)cc1 [Luminespib] (partner 0.01 µM)
How it was run: (§1)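 Lung cancer cell lines in 1536-well plates got either a single drug or a fixed anchor-drug dose together with five library-drug doses (not always all listed) in √10 steps, by pin tool, on the day after seeding. Nuclei were counted after 5 days, and relative viability is the treated-to-vehicle ratio of nuclei counts. Values are medians of duplicate plates.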

[2] = compound: C1=CC2=C(C=C(C(=C2N=C1)O)N=NC3=CC4=C(C=C3)C=C(C=C4)S(=O)(=O)O)S(=O)(=O)O + O=C(c1cc(Cc2n[nH]c(=O)c3ccccc23)ccc1F)N1CCN(C(=O)C2CC2)CC1 [Olaparib] (partner 8 µM)
How it was run: as §1

[3] = compound: O=C(NC1CCNCC1)c1n[nH]cc1NC(=O)c1c(Cl)cccc1Cl [AT-7519] + CS(=O)(=O)N1CCN(Cc2cc3nc(-c4cccc5[nH]ncc45)nc(N4CCOCC4)c3s2)CC1 [Pictilisib] (partner 1 µM)
How it was run: as §1

[4] = compound: O=C(NC1CCNCC1)c1n[nH]cc1NC(=O)c1c(Cl)cccc1Cl [AT-7519] + NC(=O)Nc1cc(-c2cccc(F)c2)sc1C(=O)N[C@H]1CCCNC1 [AZD7762] (partner 0.2 µM)
How it was run: as §1

Cell Line	relative viability ([1]; first compound 0.08 µM)	relative viability ([1]; first compound 0.253 µM)	relative viability ([1]; first compound 0.8 µM)	relative viability ([1]; first compound 2.53 µM)	relative viability ([1]; first compound 8 µM)	relative viability ([2]; first compound 0.08 µM)	relative viability ([2]; first compound 0.253 µM)	relative viability ([2]; first compound 0.8 µM)	relative viability ([2]; first compound 2.53 µM)	relative viability ([2]; first compound 8 µM)	relative viability ([3]; first compound 0.01 µM)	relative viability ([3]; first compound 0.03162 µM)	relative viability ([3]; first compound 0.3162 µM)	relative viability ([3]; first compound 1 µM)	relative viability ([4]; first compound 0.01 µM)	relative viability ([4]; first compound 0.03162 µM)	relative viability ([4]; first compound 0.3162 µM)	relative viability ([4]; first compound 1 µM)
NCI-H1975	0.194	0.2	0.206	0.264	0.252	0.868	0.854	0.772	0.795	0.824	0.293	0.253	0.231	0.146	0.691	0.744	0.76	0.638
CAL-12T	0.466	0.519	0.616	0.207	0.335	0.85	0.678	0.648	0.681	0.74	–	0.514	0.214	0.193	0.701	0.623	0.58	0.354
HCC-44	–	1.08	1.05	1.19	1.01	1.02	0.945	0.956	0.982	0.933	0.588	0.625	0.552	0.688	0.983	0.998	1.08	1
EKVX	0.875	0.87	0.848	0.888	0.799	1.02	0.77	0.904	0.822	0.955	0.449	0.385	0.393	0.346	0.798	0.608	0.822	0.719
NCI-H1651	1.25	0.869	0.877	0.86	0.836	0.187	0.176	0.196	0.208	0.181	0.59	0.478	0.397	0.41	0.531	0.49	0.536	0.561
NCI-H1944	0.826	0.696	0.802	0.741	0.721	0.407	0.402	0.426	0.416	0.33	0.356	0.334	0.323	0.339	0.528	0.472	0.699	0.479
A-427	0.891	0.823	0.851	1.04	0.727	0.727	0.763	0.709	0.825	0.736	0.711	0.713	0.574	0.253	0.791	0.627	0.883	0.502
NCI-H2347	0.77	0.523	0.36	0.824	0.317	0.569	0.538	0.618	0.569	0.8	0.565	0.665	0.345	0.286	0.625	0.843	0.725	0.469
NCI-H1355	0.737	0.735	0.646	0.68	0.775	0.736	0.717	0.748	0.728	0.711	0.462	0.388	0.475	0.35	0.71	0.703	0.902	0.907
NCI-H358	0.342	0.382	0.307	0.309	0.214	0.656	0.555	0.551	0.57	0.569	0.294	0.308	0.239	0.212	0.423	0.558	0.521	0.37
PC-3 [JPC-3]	0.576	0.708	0.663	0.729	0.761	1.31	1.15	1.17	1.14	1.09	0.779	0.751	0.688	0.694	0.908	0.844	0.671	0.992
HOP-62	0.878	0.773	0.916	0.919	0.898	0.403	0.376	0.312	0.465	0.516	0.817	0.742	0.486	0.293	0.589	0.557	0.621	0.743
HARA	1.27	0.913	0.796	0.803	0.761	0.959	0.797	0.697	0.741	0.764	0.361	0.354	0.554	0.279	0.221	0.301	0.263	0.415
NCI-H838	0.294	0.281	0.267	0.24	0.279	0.781	0.739	0.743	0.777	0.77	0.567	0.427	0.145	0.103	0.925	0.949	0.936	0.861
NCI-H1755	0.431	0.378	0.395	0.41	0.472	0.913	0.864	0.831	0.964	0.874	0.444	0.379	0.346	0.297	0.427	0.461	0.629	0.428
NCI-H322M	1.04	0.828	0.859	0.847	1.12	0.733	0.705	0.691	0.78	0.834	0.565	0.495	0.473	0.439	0.534	0.533	0.578	0.639
NCI-H3122	0.0606	0.111	0.0925	0.0947	0.102	0.643	0.623	0.561	0.644	0.584	0.625	0.603	0.645	0.102	1.01	1.11	1.02	0.752
NCI-H2087	0.169	0.191	0.153	0.231	0.237	0.688	0.651	0.622	0.563	0.601	1.02	0.882	0.593	0.173	1.48	1.13	1.49	0.58
LC-2-ad	0.989	1.04	1.05	1.1	0.834	0.72	0.671	0.749	0.683	0.744	0.653	0.366	0.386	0.158	0.77	0.844	0.826	0.945
NCI-H1915	0.842	0.773	0.877	0.78	0.82	0.25	0.286	0.256	0.258	0.258	0.987	0.943	0.755	0.417	0.704	0.689	0.773	0.782
NCI-H1793	0.22	0.189	0.184	0.264	0.16	1	0.762	0.883	0.952	0.891	0.357	0.255	0.31	0.161	0.578	0.573	0.409	0.543
RERF-LC-KJ	1.38	1.18	1.18	1.37	1.38	0.889	0.964	0.987	0.959	1.02	0.514	0.452	0.594	0.136	0.87	0.698	1.18	1.03
LXF-289	0.788	0.645	0.73	0.681	0.642	1.26	1	0.973	1.05	1.03	0.819	0.838	0.787	0.746	1.1	1.14	1.1	1.23
PC-14	0.141	0.139	0.152	0.148	0.0819	0.249	0.275	0.29	0.272	0.246	0.66	0.59	0.521	0.258	0.416	0.261	0.38	0.44
NCI-H650	0.876	0.874	0.691	0.889	0.76	0.458	0.404	0.386	0.384	0.402	0.868	0.851	0.84	0.672	1.07	0.953	0.887	1.29
NCI-H1666	1.09	0.912	1.07	0.978	0.596	0.863	0.754	0.762	0.745	0.712	0.405	0.425	0.39	0.145	0.852	0.818	0.917	0.863
NCI-H2085	0.409	0.419	0.426	0.367	0.44	0.866	0.757	0.811	0.757	0.722	0.44	0.506	0.553	0.382	0.977	0.984	0.986	1.02
NCI-H1734	0.166	0.182	0.236	0.182	0.193	0.609	0.588	0.697	0.642	0.624	0.552	0.452	0.439	0.252	0.519	0.493	0.655	0.453
NCI-H2126	0.898	0.899	0.89	1.04	0.86	0.957	0.901	0.904	0.893	0.874	0.571	0.516	0.464	0.433	1	1.1	1.04	1.13
HCC-366	–	–	–	–	–	0.432	0.402	0.335	0.361	0.319	0.0989	0.152	0.111	0.123	0.326	0.228	0.293	0.371
